In patent US20060121449A1, “Method for selection of compounds which inhibit clonal cell growth and use thereof” (priority 2002, published 2006):
“Also recorded” adds a separate entry of the source.

What was measured:
[1] = test system: polyoma virus transformed BHK21/c13 cells, clone S100T1; assay: Clonal test: clonal growth of S100T1 cells in soft agar (Exp 2, 4, 6, 15, 16); type: cell-based, hamster
[2] = test system: polyoma virus transformed BHK21/c13 cells, line S100T1; assay: Collocation inhibition test: clonal growth in sparsely and densely seeded areas of a cell density gradient of S100T1 cells in soft agar (Exp 13, 17, 19-26); conditions: for Significance: Exp 17 day 14;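 on Clonal growth, H high density area of cell gradient, High: grades rise with clonal growth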;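 on Clonal growth, H high density area of cell gradient, Low: grades rise with clonal growth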;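 on Clonal growth, H high density area of cell gradient, Medium: grades rise with clonal growth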;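 on Clonal growth, L low density area of cell gradient, High: grades rise with clonal growth and minus or plus-minus means none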;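 on Clonal growth, L low density area of cell gradient, Low: grades rise with clonal growth and minus or plus-minus means none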;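 on Clonal growth, L low density area of cell gradient, Medium: grades rise with clonal growth and minus or plus-minus means none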;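 on all read-outs here: soft agar cultures in 24-well plates with a cell density gradient in the top layer, compounds applied from DMSO stocks, clonal growth scored in sparse versus dense areas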
Ehrlich ascites tumour = conditions: Exp 18
Protocol: Tumour cells harvested from ascitic mouse were mainly solitary.
The experiment describes transplantation of the malignant mouse Ehrlich ascites tumour to two adult male mice (NMRI/Bom). Each of them received 100000 cells intraperitonally. One mouse was treated two times a week with 4-OH-OPB intraperitonally.
Cells were injected 90 minutes after the addition of 4-OH-OPB to the suspension. The control received the same cell suspension without 4-OH-OPB.
At the same time, dilutions of 4-OH-OPB were injected intraperitonally to the transplanted mice in order to find the smallest active dose.
The cells from ascites in the untreated control mouse was frozen on serum with 10% DMSO. The cells were thawed in water of 37° C., diluted in serum, and pelleted by low speed centrifugation after the addition of 2 ml FBS, to remove DMSO.
Each animal received such cells suspended in portions of 1 ml in RPMI (pH˜6.9).
The frozen and thawed Ehrlich ascites cells are diluted in a volume of 1 ml RPMI (pH˜6.9) for each animal. No calf serum was added to the medium to avoid immunisation of the mice.
Cell number: 90000 tumour cells in 0.7 ml RPMI were injected intraperitonally to each animal.
The total cell number in the ampoule was 7.5 million cells. The cells were thawed, and 2 ml FBS was added before low speed centrifugation. […] Than separate vessels were prepared for each animal. The cell tube for animal number 3 received Colchicine as indicated in the table on day 0 one hour before the cells were injected.
After mixing the same volume was transferred from this tube to the last tube.
The content of the last two tubes was injected intraperitonally to each of the mice number 1 and 2 respectively.

[3] = Exp 13, 4-OH-OPB 1-3 μM, Colchicine 0.01-0.1 μM
[4] = Exp 13, High inhibitor conc. (Colchicine 100 nM), H: high cell density area
[5] = Exp 13, High inhibitor conc. (Colchicine 100 nM), L: low cell density area
[6] = Exp 13, Low inhibitor conc. (4-OH—OPB 1 μM, Colchicine 10 nM), H: high cell density area
[7] = Exp 13, Low inhibitor conc. (4-OH—OPB 1 μM, Colchicine 10 nM), L: low cell density area
[8] = Exp 13, Medium inhibitor conc. (4-OH—OPB 3 μM, Colchicine 33 nM), H: high cell density area
[9] = Exp 13, Medium inhibitor conc. (4-OH—OPB 3 μM, Colchicine 33 nM), L: low cell density area
[10] = preliminary results, Exp 13-18, 21-26, high concentration
[11] = preliminary results, Exp 13-18, 21-26, low concentration
[12] = preliminary results, Exp 13-18, 21-26, medium concentration

Question: With COc1cc2c(c(OC)c1OC)-c1ccc(OC)c(=O)cc1[C@@H](NC(C)=O)CC2 [Colchicine, reference compound] as the compound, how does the “Effect on clonal growth at 0.01-0.1 μM” value ([1]; Exp 15, 32000 S100T1 cells/well) read?
Answer: did not inhibit clonal growth

Question: And the “Colony inhibiting activity for dosage within a range that might be therapeutic” value ([1]; Exp 16, about 40000 S100T1 cells/well)?
Answer: the same activity possibly existed

Question: And the Significance ([1]; Exp 16 day 14, Colchicine No 1 (lot 60K1932, solved in DMSO 8 days beforehand, stored frozen), 0.1 μM)?
Answer: doubtful

Question: And the Growth ([1]; Exp 16 day 14, Colchicine No 1 (lot 60K1932, solved in DMSO 8 days beforehand, stored frozen), 0.1 μM in wells)?
Answer: (+

Question: And the Significance ([1]; Exp 16 day 14, Colchicine No 1 (lot 60K1932, solved in DMSO 8 days beforehand, stored frozen), 1 μM)?
Answer: doubtful

Question: What about the Growth ([1]; Exp 16 day 14, Colchicine No 1 (lot 60K1932, solved in DMSO 8 days beforehand, stored frozen), 1 μM in wells) of the same compound?
Answer: (+

Question: What about the Growth ([1]; Exp 16 day 14, Colchicine No 2 (lot 60K1932, solved in DMSO the same day), 0.1 μM in wells) of the same compound?
Answer: (+

Question: And the Significance ([1]; Exp 16 day 14, Colchicine No 2 (lot 60K1932, solved in DMSO the same day), 0.1 μM, ” = as line above)?
Answer: ” and doubtful

Question: And the Significance ([1]; Exp 16 day 14, Colchicine No 2 (lot 60K1932, solved in DMSO the same day), 1 μM)?
Answer: possible

Question: And the Growth ([1]; Exp 16 day 14, Colchicine No 2 (lot 60K1932, solved in DMSO the same day), 1 μM in wells)?
Answer: (+)

Question: And the Significance ([1]; Exp 16 day 14, Colchicine No 3 (lot 28H1229, solved in DMSO the same day), 0.1 μM)?
Answer: possible

Question: And the Growth ([1]; Exp 16 day 14, Colchicine No 3 (lot 28H1229, solved in DMSO the same day), 0.1 μM in wells)?
Answer: (+)

Question: And the Growth ([1]; Exp 16 day 14, Colchicine No 3 (lot 28H1229, solved in DMSO the same day), 0.22 μM in wells)?
Answer: (+)

Question: And the Significance ([1]; Exp 16 day 14, Colchicine No 3 (lot 28H1229, solved in DMSO the same day), 0.22 μM, ” = as line above)?
Answer: ” and possible

Question: What about the Growth ([1]; Exp 16 day 14, Colchicine No 4 (lot 28H1229, solved in DMSO the same day), 0.46 μM in wells) of the same compound?
Answer: (+)

Question: What about the Significance ([1]; Exp 16 day 14, Colchicine No 4 (lot 28H1229, solved in DMSO the same day), 0.46 μM, ” = as line above) of the same compound?
Answer: ” and possible

Question: What about the Significance ([1]; Exp 16 day 14, Colchicine No 4 (lot 28H1229, solved in DMSO the same day), 1 μM) of the same compound?
Answer: probable

Question: And the Growth ([1]; Exp 16 day 14, Colchicine No 4 (lot 28H1229, solved in DMSO the same day), 1 μM in wells)?
Answer: (+))

Question: And the Significance ([1]; Exp 16 day 21, Colchicine No 1 (lot 60K1932, solved in DMSO 8 days beforehand, stored frozen), 0.1 μM)?
Answer: no

Question: And the Growth ([1]; Exp 16 day 21, Colchicine No 1 (lot 60K1932, solved in DMSO 8 days beforehand, stored frozen), 0.1 μM in wells)?
Answer: +

Question: What about the Significance ([1]; Exp 16 day 21, Colchicine No 1 (lot 60K1932, solved in DMSO 8 days beforehand, stored frozen), 1 μM) of the same compound?
Answer: doubtful

Question: What about the Growth ([1]; Exp 16 day 21, Colchicine No 1 (lot 60K1932, solved in DMSO 8 days beforehand, stored frozen), 1 μM in wells) of the same compound?
Answer: (+

Question: What about the Significance ([1]; Exp 16 day 21, Colchicine No 2 (lot 60K1932, solved in DMSO the same day), 0.1 μM) of the same compound?
Answer: doubtful

Question: And the Growth ([1]; Exp 16 day 21, Colchicine No 2 (lot 60K1932, solved in DMSO the same day), 0.1 μM in wells)?
Answer: (+

Question: What about the Significance ([1]; Exp 16 day 21, Colchicine No 2 (lot 60K1932, solved in DMSO the same day), 1 μM) of the same compound?
Answer: possible

Question: And the Growth ([1]; Exp 16 day 21, Colchicine No 2 (lot 60K1932, solved in DMSO the same day), 1 μM in wells)?
Answer: (+)

Question: And the Growth ([1]; Exp 16 day 21, Colchicine No 3 (lot 28H1229, solved in DMSO the same day), 0.1 μM in wells)?
Answer: (+

Question: What about the Significance ([1]; Exp 16 day 21, Colchicine No 3 (lot 28H1229, solved in DMSO the same day), 0.1 μM, ” = as line above) of the same compound?
Answer: ” and doubtful

Question: What about the Significance ([1]; Exp 16 day 21, Colchicine No 3 (lot 28H1229, solved in DMSO the same day), 0.22 μM) of the same compound?
Answer: doubtful

Question: And the Growth ([1]; Exp 16 day 21, Colchicine No 3 (lot 28H1229, solved in DMSO the same day), 0.22 μM in wells)?
Answer: (+

Question: And the Significance ([1]; Exp 16 day 21, Colchicine No 4 (lot 28H1229, solved in DMSO the same day), 0.46 μM)?
Answer: possible

Question: What about the Growth ([1]; Exp 16 day 21, Colchicine No 4 (lot 28H1229, solved in DMSO the same day), 0.46 μM in wells) of the same compound?
Answer: (+)

Question: And the Growth ([1]; Exp 16 day 21, Colchicine No 4 (lot 28H1229, solved in DMSO the same day), 1 μM in wells)?
Answer: (+

Question: And the Significance ([1]; Exp 16 day 21, Colchicine No 4 (lot 28H1229, solved in DMSO the same day), 1 μM, ” = as line above)?
Answer: ” and doubtful

Question: What about the “Growth in locations with high cell density” value [2, 3] of the same compound?
Answer: did not inhibit clonal growth

Question: And the “Growth in locations with low cell density (sparsely seeded cells)” value [2, 3]?
Answer: full inhibition on clonal growth of sparsely seeded cells; also recorded: inhibited growth in locations with low cell density even when using low doses

Question: What about the “Growth, summary of results after 3 days incubation” value (from here on “Growth … after 3 days incubation”) [2, 4] of the same compound?
Answer: +++

Question: What about the “Growth, summary of results after 4 days incubation” value (“Growth … after 4 days incubation” below) [2, 4] of the same compound?
Answer: +++

Question: What about the “Growth … after 3 days incubation” value [2, 5] of the same compound?
Answer: −

Question: What about the “Growth … after 4 days incubation” value [2, 5] of the same compound?
Answer: −

Question: And the “Growth … after 3 days incubation” value [2, 6]?
Answer: +++

Question: What about the “Growth … after 4 days incubation” value [2, 6] of the same compound?
Answer: +++

Question: What about the “Growth … after 3 days incubation” value [2, 7] of the same compound?
Answer: −

Question: What about the “Growth … after 4 days incubation” value [2, 7] of the same compound?
Answer: +−

Question: What about the “Growth … after 3 days incubation” value [2, 8] of the same compound?
Answer: +++

Question: What about the “Growth … after 4 days incubation” value [2, 8] of the same compound?
Answer: +++

Question: What about the “Growth … after 3 days incubation” value [2, 9] of the same compound?
Answer: −

Question: What about the “Growth … after 4 days incubation” value [2, 9] of the same compound?
Answer: −

Question: And the “Effect on growth in high- and low-density areas” value ([2]; Exp 17, 144000 S100T1 cells/well)?
Answer: did not inhibit the high-density areas significantly; also recorded: no complete clonal inhibition could be observed

Question: And the “Clonal growth, results read on the day 14” value (shortened to “Clonal growth, results read”) ([2]; Exp 17, a: close to densely seeded cell areas, High: Colchicine 1, Podophyllotoxin 3, Etoposide 200, 4-OH—OPB 6.7 μM in wells, DMSO 29.2 μl)?
Answer: (+)

Question: What about the “Clonal growth, results read” value ([2]; Exp 17, a: close to densely seeded cell areas, Low: Colchicine 0.1, Podophyllotoxin 0.3, Etoposide 20, 4-OH—OPB 0.67 μM in wells, DMSO 1.16 μl) of the same compound?
Answer: ++

Question: What about the “Clonal growth, results read” value ([2]; Exp 17, a: close to densely seeded cell areas, Medium: Colchicine 0.3, Podophyllotoxin 0.9, Etoposide 60, 4-OH—OPB 2 μM in wells, DMSO 6.8 μl) of the same compound?
Answer: ++

Question: And the “Clonal growth, results read” value ([2]; Exp 17, b: sparsely seeded areas in the same agar culture, High: Colchicine 1, Podophyllotoxin 3, Etoposide 200, 4-OH—OPB 6.7 μM in wells, DMSO 29.2 μl)?
Answer: (+)

Question: And the “Clonal growth, results read” value ([2]; Exp 17, b: sparsely seeded areas in the same agar culture, Low: Colchicine 0.1, Podophyllotoxin 0.3, Etoposide 20, 4-OH—OPB 0.67 μM in wells, DMSO 1.16 μl)?
Answer: ++

Question: What about the “Clonal growth, results read” value ([2]; Exp 17, b: sparsely seeded areas in the same agar culture, Medium: Colchicine 0.3, Podophyllotoxin 0.9, Etoposide 60, 4-OH—OPB 2 μM in wells, DMSO 6.8 μl) of the same compound?
Answer: ++

Question: And the “Clones in sparsely seeded locations of the agar” value ([2]; Exp 17, compared with 4-OH-OPB)?
Answer: allow the growth of a few small clones in sparsely seeded locations of the agar; also recorded: to allow the growth of a few small clones in sparsely

Question: What about the Significance ([2]; a: close to densely seeded cell areas, High: Colchicine 1, Podophyllotoxin 3, Etoposide 200, 4-OH—OPB 6.7 μM in wells, DMSO 29.2 μl) of the same compound?
Answer: Possible

Question: And the Significance ([2]; a: close to densely seeded cell areas, Low: Colchicine 0.1, Podophyllotoxin 0.3, Etoposide 20, 4-OH—OPB 0.67 μM in wells, DMSO 1.16 μl)?
Answer: No

Question: What about the Significance ([2]; a: close to densely seeded cell areas, Medium: Colchicine 0.3, Podophyllotoxin 0.9, Etoposide 60, 4-OH—OPB 2 μM in wells, DMSO 6.8 μl) of the same compound?
Answer: No

Question: And the Significance ([2]; b: sparsely seeded areas, High: Colchicine 1, Podophyllotoxin 3, Etoposide 200, 4-OH—OPB 6.7 μM in wells, DMSO 29.2 μl)?
Answer: Possible

Question: What about the Significance ([2]; b: sparsely seeded areas, Low: Colchicine 0.1, Podophyllotoxin 0.3, Etoposide 20, 4-OH—OPB 0.67 μM in wells, DMSO 1.16 μl) of the same compound?
Answer: No

Question: And the Significance ([2]; b: sparsely seeded areas, Medium: Colchicine 0.3, Podophyllotoxin 0.9, Etoposide 60, 4-OH—OPB 2 μM in wells, DMSO 6.8 μl)?
Answer: No

Question: What about the “Clonal growth, H high density area of cell gradient, High” value [2, 10] of the same compound?
Answer: +++

Question: And the “Clonal growth, L low density area of cell gradient, High” value [2, 10]?
Answer: −

Question: What about the “Clonal growth, H high density area of cell gradient, Low” value [2, 11] of the same compound?
Answer: +++

Question: And the “Clonal growth, L low density area of cell gradient, Low” value [2, 11]?
Answer: −

Question: And the “Clonal growth, H high density area of cell gradient, Medium” value [2, 12]?
Answer: +++

Question: What about the “Clonal growth, L low density area of cell gradient, Medium” value [2, 12] of the same compound?
Answer: −

Question: What about the “Effect on cell cloning in soft agar” value ([2]; preliminary results, in words) of the same compound?
Answer: Growth in high density areas; also recorded: No growth in low density areas

Question: What about the “tumour in abdominal wall, findings on section” value (Ehrlich ascites tumour; at killing, control 2 × 3 mm tumour) of the same compound?
Answer: Lens sized

Question: What about the “ascites with Ehrlich cells, findings on section” value (Ehrlich ascites tumour; at killing, control 4 ml) of the same compound?
Answer: 1.5 mL

Question: What about the “day 14 status” value (Ehrlich ascites tumour; day 14 after ip transplantation, mouse 1 killed, mice 2 and 3 marked '?') of the same compound?
Answer: Ascites

Question: What about the “day 16 status” value (Ehrlich ascites tumour; day 16, killed because of signs of ascites) of the same compound?
Answer: Ascites

Question: What about the “Rescue of mice from transplanted Ehrlich tumour” value (Ehrlich ascites tumour; high dose mixed with the transplanted cells before injection) of the same compound?
Answer: did not provide complete protection against the development of transplantable Ehrlich tumour; also recorded: not rescue the animal either. The conclusion is

Question: And the “weight gain in %” value (Ehrlich ascites tumour; one mouse each, ip: mouse 1 4-OH—OPB from day 1, mouse 2 Etoposide + 4-OH—OPB from day 1, mouse 3 Colchicine from day 0, control mouse 42.4)?
Answer: 23.8%
